Measured values published in ChEMBL document CHEMBL1201862, “PubChem BioAssay data set” (2004).
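96-well plates; 48 h exposure; 5 concentrations. Endpoints by linear interpolation between flanking doses. Not reached: highest tested concentration assigned. GI50 marks 50% less growth.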 Activity calls are given as the source filed them. Cut-off read from the data, not from the text of the source: active = GI50 up to about 1.1 µM and inactive = higher.

Assays:
Assay in all cases: growth of human tumour cells (NCI), 48 h
786-0 = system: 786-0
A498 = system: A498
ACHN = system: ACHN
CCRF-CEM = system: CCRF-CEM
DU-145 = system: DU-145
EKVX = system: EKVX
HCT-15 = system: HCT-15
Hs-578T = system: Hs-578T
MDA-MB-231 = system: MDA-MB-231
NCI/ADR-RES = system: NCI/ADR-RES
OVCAR-4 = system: OVCAR-4
RXF 393 = system: RXF 393
SK-MEL-28 = system: SK-MEL-28
T47D = system: T47D
TK-10 = system: TK-10
UACC-257 = system: UACC-257
UACC-62 = system: UACC-62
LOX IMVI = system: LOX IMVI
BT-549 = system: BT-549

Row | Structure (SMILES) | GI50 (786-0) | GI50 (A498) | GI50 (ACHN) | GI50 (CCRF-CEM) | GI50 (DU-145) | GI50 (EKVX) | GI50 (HCT-15) | GI50 (Hs-578T) | GI50 (MDA-MB-231) | GI50 (NCI/ADR-RES) | GI50 (OVCAR-4) | GI50 (RXF 393) | GI50 (SK-MEL-28) | GI50 (T47D) | GI50 (TK-10) | GI50 (UACC-257) | GI50 (UACC-62) | GI50 (LOX IMVI) | GI50 (BT-549)
1 | O=c1[nH]nc(N/N=C\c2ccc(Cl)cc2)c2ccccc12 | 14.8 µM (inactive) | 30.3 µM (inactive) | 21.4 µM (inactive) | 44 µM (inactive) | 21.9 µM (inactive) | 31.3 µM (inactive) | 17.9 µM | 37 µM (inactive) | 22.3 µM (inactive) | 19.6 µM (inactive) | 52.7 µM (inactive) | 25.4 µM (inactive) | 23.3 µM (inactive) | 25.7 µM (inactive) | 32.5 µM (inactive) | 21.4 µM (inactive) | 20.5 µM (inactive) |  | 
2 | O=C(Cc1ccccc1)NN1C(=O)/C(=C\c2cccc(O)c2)S/C1=N\c1ccccc1 | > 100 µM (inactive) | > 100 µM (inactive) | > 100 µM (inactive) |  | > 100 µM (inactive) | > 100 µM (inactive) | > 100 µM | > 100 µM (inactive) | 45.8 µM (inactive) | > 100 µM (inactive) | > 100 µM (inactive) | > 100 µM (inactive) | > 100 µM (inactive) | 57.3 µM (inactive) | > 100 µM (inactive) | > 100 µM (inactive) | > 100 µM (inactive) |  | 
3 | [O-][N+]1=[N+]([O-])[C@@H](c2ccccc2)[C@H]1c1ccccc1 | 13.5 µM (inactive) | 27.1 µM (inactive) | 17.6 µM (inactive) | 3.3 µM (inactive) | 16.3 µM (inactive) | 18.3 µM (inactive) | 11.4 µM | > 100 µM (inactive) | 20.2 µM (inactive) | 17.5 µM (inactive) | 25 µM (inactive) | 14.8 µM (inactive) | 16.6 µM (inactive) |  | 17 µM (inactive) | 13.1 µM (inactive) | 17.5 µM (inactive) | 15.3 µM (inactive) | 
4 | O=C(CSc1nc2ccccc2c(=O)n1-c1ccccc1)N/N=C1\C(=O)Nc2ccc(F)cc21 | 2.34 µM (inactive) | 1.85 µM (inactive) | 1.91 µM (inactive) | 2.35 µM (inactive) | 1.89 µM (inactive) | 2.43 µM (inactive) | 2 µM | 4.18 µM (inactive) | 2.01 µM (inactive) | 2.21 µM (inactive) | 1.82 µM (inactive) | 1.95 µM (inactive) | 2.08 µM (inactive) | 1.87 µM (inactive) | 1.9 µM (inactive) | 2.47 µM (inactive) | 2.24 µM (inactive) | 4.31 µM (inactive) | 
5 | CCCCCCCCCCCCCCCC1(OC)C[N+](C)(C)CCO1 (stereo not given) | 0.813 µM (active) | 19.1 µM (inactive) | 1.85 µM (inactive) | 0.637 µM (active) | 2.35 µM (inactive) | 2.31 µM (inactive) | 6.01 µM | 1.97 µM (inactive) | 1.75 µM (inactive) | 17.9 µM (inactive) | 1.02 µM (active) | 0.778 µM (active) | 2.37 µM (inactive) | 5.73 µM (inactive) | 2.45 µM (inactive) | 2.08 µM (inactive) | 2.76 µM (inactive) | 1.26 µM (inactive) | 
6 | COc1cccc(NC(=O)C(C#N)=C(SC)SC)c1 | > 100 µM (inactive) | > 100 µM (inactive) | > 100 µM (inactive) | 34 µM (inactive) |  | > 100 µM (inactive) | > 100 µM | > 100 µM (inactive) | > 100 µM (inactive) | > 100 µM (inactive) | > 100 µM (inactive) | > 100 µM (inactive) | > 100 µM (inactive) |  | > 100 µM (inactive) | > 100 µM (inactive) | > 100 µM (inactive) | > 100 µM (inactive) | > 100 µM (inactive)
7 | OC[C@@H](O)[C@H]1NC[C@@H](O)[C@H]1O | > 100 µM (inactive) | > 100 µM (inactive) | > 100 µM (inactive) | > 100 µM (inactive) | > 100 µM (inactive) | > 100 µM (inactive) | > 100 µM | > 100 µM (inactive) |  |  | > 100 µM (inactive) | > 100 µM (inactive) | > 100 µM (inactive) |  | > 100 µM (inactive) | > 100 µM (inactive) | > 100 µM (inactive) |  | > 100 µM (inactive)
8 | Sc1nnc(CNc2ccc(-c3nnc(S)n3-c3ccc(Cl)cc3)cc2)n1-c1ccc(Cl)cc1 | 26.9 µM (inactive) | 55.2 µM (inactive) | 47.5 µM (inactive) |  | 30.5 µM (inactive) | 45.3 µM (inactive) | 48 µM |  | 20.2 µM (inactive) | > 100 µM (inactive) | 29.5 µM (inactive) | 45.4 µM (inactive) | 25.8 µM (inactive) |  | 37.2 µM (inactive) | 41.2 µM (inactive) | 25.2 µM (inactive) |  | 34.6 µM (inactive)
9 | [O-][S+]1c2ccccc2SCSc2ccccc21 | > 100 µM (inactive) | > 100 µM (inactive) | > 100 µM (inactive) |  | > 100 µM (inactive) |  | > 100 µM |  | > 100 µM (inactive) | > 100 µM (inactive) | > 100 µM (inactive) | > 100 µM (inactive) |  | 97.7 µM (inactive) | > 100 µM (inactive) |  | > 100 µM (inactive) |  | 
10 | Oc1ccc(O)c(Cc2ccccc2)c1 | 14.7 µM (inactive) | 43.9 µM (inactive) | 14.8 µM (inactive) | 7.41 µM (inactive) | 6.27 µM (inactive) | 38.5 µM (inactive) | 13.6 µM | 31.9 µM (inactive) | 19 µM (inactive) | 16.4 µM (inactive) | 14.2 µM (inactive) |  | 33.7 µM (inactive) | 0.0887 µM (active) | 21.7 µM (inactive) | 25.9 µM (inactive) | 20.2 µM (inactive) | 18.6 µM (inactive) | 
11 | COc1ccc(/C=C/c2ccnc3ccccc23)cc1 | 16.8 µM (inactive) | 14.1 µM (inactive) | 13.9 µM (inactive) | 10.5 µM (inactive) | 14.8 µM (inactive) | 13.1 µM (inactive) | 18.1 µM | 22.6 µM (inactive) |  | 14.2 µM (inactive) | 3.03 µM (inactive) | 19.3 µM (inactive) | 14.5 µM (inactive) | 4.9 µM (inactive) | 16.2 µM (inactive) | 15.3 µM (inactive) | 15.7 µM (inactive) | 16.5 µM (inactive) | 
12 | C=CCOC(=O)N1c2ccc(O)cc2[C@@]23O[C@@]24[C@@H]1C#C/C=C\C#C[C@]3(O)C(=O)C[C@@H]4C | 13.9 µM (inactive) | 42.8 µM (inactive) | 28.2 µM (inactive) | 28.4 µM (inactive) | > 100 µM (inactive) | 78 µM (inactive) | > 100 µM | 47.5 µM (inactive) | > 100 µM (inactive) | 65.5 µM (inactive) | 0.0231 µM (active) | > 100 µM (inactive) | > 100 µM (inactive) | > 100 µM (inactive) | > 100 µM (inactive) | > 100 µM (inactive) | 99.8 µM (inactive) |  | 
13 | COc1ccc(CNc2nc(NCc3ccc(OC)cc3)nc(NC3CCCC3)n2)cc1 | 4.05 µM (inactive) |  | 4.47 µM (inactive) | 2.24 µM (inactive) | 3.44 µM (inactive) | 19.9 µM (inactive) | 3.19 µM | 3.07 µM (inactive) | 3.54 µM (inactive) | 2.7 µM (inactive) | > 25.4 µM (inactive) | 0.665 µM (active) | 10.9 µM (inactive) |  | 3.26 µM (inactive) | 12 µM (inactive) |  | 5.78 µM (inactive) | 
14 | CN(CC(=O)O)c1ncc2c(n1)-c1ccccc1OC2 | > 100 µM (inactive) | > 100 µM (inactive) | > 100 µM (inactive) | > 100 µM (inactive) | > 100 µM (inactive) | > 100 µM (inactive) | > 100 µM | > 100 µM (inactive) | > 100 µM (inactive) | > 100 µM (inactive) | > 100 µM (inactive) | > 100 µM (inactive) | > 100 µM (inactive) |  | > 100 µM (inactive) | > 100 µM (inactive) | > 100 µM (inactive) | > 100 µM (inactive) | 
15 | COC(=O)[C@@H]1CN(C(=O)Cc2ccccc2)C(=O)N1 | > 100 µM (inactive) | > 100 µM (inactive) | > 100 µM (inactive) | > 100 µM (inactive) | > 100 µM (inactive) | > 100 µM (inactive) |  | > 100 µM (inactive) | > 100 µM (inactive) | > 100 µM (inactive) | > 100 µM (inactive) | > 100 µM (inactive) | > 100 µM (inactive) | > 100 µM (inactive) | > 100 µM (inactive) | > 100 µM (inactive) | > 100 µM (inactive) | > 100 µM (inactive) | 
16 | Cc1cc(NS(=O)(=O)c2ccc(NC(=O)c3cccc4c(Nc5ccc(S(=O)(=O)N=C(N)N)cc5)c5ccccc5nc34)cc2)no1 | > 100 µM (inactive) | > 100 µM (inactive) | > 100 µM (inactive) |  |  | > 100 µM (inactive) | > 100 µM |  |  |  | > 100 µM (inactive) | > 100 µM (inactive) | > 100 µM (inactive) |  | > 100 µM (inactive) | > 100 µM (inactive) | > 100 µM (inactive) | > 100 µM (inactive) | 
17 | CC(C(O)c1ccccc1)[N+](=O)[O-] (stereo not given) | 6.93 µM (inactive) | 17.5 µM (inactive) | 16.3 µM (inactive) | 10 µM (inactive) | 12.7 µM (inactive) | 30 µM (inactive) | 11.5 µM | 28.2 µM (inactive) | 26.5 µM (inactive) | 28.1 µM (inactive) | 24.7 µM (inactive) | 10.9 µM (inactive) | 19.8 µM (inactive) | 15.5 µM (inactive) | 28.6 µM (inactive) | 16.8 µM (inactive) | 20.2 µM (inactive) | 2.29 µM (inactive) | 
